Activity calls are given as the source filed them. The rule behind the calls is not given here.
Legend:
[1] = test system: Cerebellar granule neurone; experiment: (§1) Neuroprotective activity against H2O2-induced neuronal death in Sprague-Dawley rat primary cerebellar granule neurons assessed as increase in cell viability at 0.5 to 300 uM preincubated for 24 hrs followed by H2O2 addition and measured after 24 hrs by MTT assay; format: functional, tissue-based; conditions: dose 0.5-300 µM, time 48.0 hrs
[2] = Cytotoxicity against Sprague-Dawley rat primary cerebellar granule neurons assessed as reduction in cell viability measured after 48 hrs by MTT assay; format: tissue-based, Cerebellar granule neurone; conditions: read-out: LC50
Acetylcholinesterase [3] = target: T1, Acetylcholinesterase (Homo sapiens, UniProt P22303); experiment: Inhibition of human erythrocytes AChE using acetylthiocholine iodide as substrate measured after 30 mins by Ellman's method
[4] = Neuroprotective activity against H2O2-induced cell death in […] cells at 0.5 uM preincubated for 24 hrs followed by H2O2 addition and measured after 24 hrs by neutral red staining based spectrophotometric method relative to control; format: functional; conditions: time 48 hrs
[5] = Cytotoxicity against […] cells assessed as reduction in cell viability measured after 24 hrs by neutral red staining based spectrophotometric method; conditions: read-out: LC50
Acetylcholinesterase [6] = target: T1, Acetylcholinesterase; experiment: Potency index, ratio of physostigmine IC50 to test compound IC50 for human erythrocytes AChE
[7] = Neuroprotective activity against H2O2-induced neuronal death in Sprague-Dawley rat primary cerebellar granule neurons assessed as increase in cell viability preincubated for 24 hrs followed by H2O2 addition and measured after 24 hrs by MTT assay relative to control; format: functional, Cerebellar granule neurone; conditions: time 48 hrs
[8] = (§2) Neuroprotective activity against H2O2-induced neuronal death in Sprague-Dawley rat primary cerebellar granule neurons assessed as increase in cell viability preincubated for 24 hrs followed by H2O2 addition and measured after 24 hrs by MTT assay; format: functional, Cerebellar granule neurone; conditions: time 48 hrs
[9] = test system: Cerebellar granule neurone; experiment: Neuroprotective activity against H2O2-induced neuronal death in Sprague-Dawley rat primary cerebellar granule neurons assessed as increase in cell viability at 0.5 to 10 uM preincubated for 24 hrs followed by H2O2 addition and measured after 24 hrs by MTT assay; format: functional, tissue-based; conditions: dose 0.5-10 µM, time 48.0 hrs
[10] = test system: Cerebellar granule neurone; experiment: as §1, with “reduction” for “increase”, “neurite fragmentation” for “cell viability”, “Hoechst 33258 staining based confocal immunofluorescence microscopic analysis” for “MTT assay”; format: functional, tissue-based; conditions: dose 0.5-300 µM, time 48.0 hrs
[11] = test system: Cerebellar granule neurone; experiment: as §1, with “reduction” for “increase”, “nuclear condensation” for “cell viability”, “Hoechst 33258 staining based confocal immunofluorescence microscopic analysis” for “MTT assay”; format: functional, tissue-based; conditions: dose 0.5-300 µM, time 48.0 hrs
[12] = test system: Cerebellar granule neurone; experiment: as §2; format: functional; conditions: time 48.0 hrs

T1 sequence (P22303 whole entry): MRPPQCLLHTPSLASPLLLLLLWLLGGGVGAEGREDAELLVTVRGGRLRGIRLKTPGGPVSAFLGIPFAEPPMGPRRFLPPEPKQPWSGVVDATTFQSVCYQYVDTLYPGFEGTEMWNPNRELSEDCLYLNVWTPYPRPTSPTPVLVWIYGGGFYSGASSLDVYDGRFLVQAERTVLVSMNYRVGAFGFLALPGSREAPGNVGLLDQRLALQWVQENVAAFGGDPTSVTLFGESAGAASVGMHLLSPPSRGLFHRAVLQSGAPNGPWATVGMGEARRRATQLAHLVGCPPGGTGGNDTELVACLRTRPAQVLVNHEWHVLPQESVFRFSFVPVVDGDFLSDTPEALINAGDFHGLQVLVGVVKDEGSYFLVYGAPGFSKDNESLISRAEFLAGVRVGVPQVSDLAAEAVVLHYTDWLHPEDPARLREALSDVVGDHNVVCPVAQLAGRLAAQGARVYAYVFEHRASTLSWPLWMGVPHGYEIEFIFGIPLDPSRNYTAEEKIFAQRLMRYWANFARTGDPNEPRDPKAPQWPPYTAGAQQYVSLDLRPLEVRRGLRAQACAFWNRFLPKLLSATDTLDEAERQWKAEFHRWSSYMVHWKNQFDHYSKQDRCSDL

Row | Structure (SMILES) | Activity [1] | CC50 at 48 h [2] [µM] | IC50 (Acetylcholinesterase [3]) [µM] | Activity [4] [%] | CC50 at 24 h [5] [µM] | Ratio IC50 (Acetylcholinesterase [6]) | %max [7] [%] | EC [8] [µM] | Activity [9] | Activity [10] | Activity [11] | Activity [12]
1 | C=CC(C)(C)c1cc([C@@H]2CC(=O)c3c(cc(O)c(CC=C(C)C)c3O)O2)c(OC)cc1O | inactive | 40.7 |  |  |  |  |  |  |  |  |  | 
2 | CC(C)=CCc1c(O)cc(O)c2c1O[C@H](c1ccccc1)CC2=O [GLABRANIN] |  | 44.5 | 0.0064 | 31.32 | 27.3 | 12 | 20.34 | 10 | inactive | Active | Active | 
3 | O=C1C[C@@H](c2ccccc2)Oc2cc(O)cc(O)c21 [PINOCEMBRIN] | inactive | 247 |  |  |  |  |  |  |  |  |  | 
4 | CC(C)=CCc1c(O)cc2c(c1O)C(=O)C[C@@H](c1ccc(O)c(O)c1CC=C(C)C)O2 | inactive | > 300 |  |  |  |  |  |  |  |  |  | 
5 | C=CC(C)(C)c1cc([C@@H]2CC(=O)c3c(O)cc(O)c(CC=C(C)C)c3O2)c(O)cc1O |  | 12.5 | 29 | 51.76 | 13 |  | 16.37 | 5 | inactive | Active | Active | 
6 | C=CC(C)(C)c1cc([C@@H]2CC(=O)c3c(O)cc(O)c(CC=C(C)C)c3O2)c(OC)cc1O |  | > 300 |  |  |  |  | 22.3 | 200 |  |  |  | Dose-dependent effect

From ChEMBL document CHEMBL4765440, “Neuroprotective effects of prenylated flavanones isolated from Dalea species, in vitro and in silico studies” (Eur J Med Chem, 2020)
